# From ChEMBL document CHEMBL1201862, “PubChem BioAssay data set” (2004)
# Calls of active or inactive are those of the source.
# Experiments:
# Caspase-3 = molecular target: T1, Caspase-3 (Homo sapiens, UniProt P42574); type: functional;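 note: Dose-response selectivity test against caspase-3 for candidate inhibitors of sentrin-specific proteases (SENPs)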
# T1 sequence (P42574 whole entry): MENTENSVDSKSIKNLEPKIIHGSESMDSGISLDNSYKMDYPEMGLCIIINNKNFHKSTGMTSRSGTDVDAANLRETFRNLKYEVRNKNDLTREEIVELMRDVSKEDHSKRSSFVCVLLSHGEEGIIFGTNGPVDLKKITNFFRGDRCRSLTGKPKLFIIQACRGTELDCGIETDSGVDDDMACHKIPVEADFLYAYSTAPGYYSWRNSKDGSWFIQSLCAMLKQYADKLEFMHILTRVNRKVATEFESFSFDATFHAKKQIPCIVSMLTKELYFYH
# [1] = molecular target: T2, Sentrin-specific protease 8 (Homo sapiens, UniProt Q96LD8); type: functional;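 note: luminescence read-out of SENP8 inhibition, dose-response confirmation following an ultra-high-throughput screen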
# T2 sequence (Q96LD8 whole entry): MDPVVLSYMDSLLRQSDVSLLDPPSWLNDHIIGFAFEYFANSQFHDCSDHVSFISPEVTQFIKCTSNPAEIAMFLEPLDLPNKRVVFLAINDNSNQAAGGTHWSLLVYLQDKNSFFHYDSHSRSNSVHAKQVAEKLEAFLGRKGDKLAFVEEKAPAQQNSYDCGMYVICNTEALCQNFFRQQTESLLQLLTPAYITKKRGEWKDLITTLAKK
# [2] = molecular target: T3, Sentrin-specific protease 7 (Homo sapiens, UniProt Q9BQF6); type: functional;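 note: Luminescence-based dose-response confirmation of ultra-high-throughput screening hits, measuring inhibition of SENP7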
# T3 sequence (Q9BQF6 whole entry): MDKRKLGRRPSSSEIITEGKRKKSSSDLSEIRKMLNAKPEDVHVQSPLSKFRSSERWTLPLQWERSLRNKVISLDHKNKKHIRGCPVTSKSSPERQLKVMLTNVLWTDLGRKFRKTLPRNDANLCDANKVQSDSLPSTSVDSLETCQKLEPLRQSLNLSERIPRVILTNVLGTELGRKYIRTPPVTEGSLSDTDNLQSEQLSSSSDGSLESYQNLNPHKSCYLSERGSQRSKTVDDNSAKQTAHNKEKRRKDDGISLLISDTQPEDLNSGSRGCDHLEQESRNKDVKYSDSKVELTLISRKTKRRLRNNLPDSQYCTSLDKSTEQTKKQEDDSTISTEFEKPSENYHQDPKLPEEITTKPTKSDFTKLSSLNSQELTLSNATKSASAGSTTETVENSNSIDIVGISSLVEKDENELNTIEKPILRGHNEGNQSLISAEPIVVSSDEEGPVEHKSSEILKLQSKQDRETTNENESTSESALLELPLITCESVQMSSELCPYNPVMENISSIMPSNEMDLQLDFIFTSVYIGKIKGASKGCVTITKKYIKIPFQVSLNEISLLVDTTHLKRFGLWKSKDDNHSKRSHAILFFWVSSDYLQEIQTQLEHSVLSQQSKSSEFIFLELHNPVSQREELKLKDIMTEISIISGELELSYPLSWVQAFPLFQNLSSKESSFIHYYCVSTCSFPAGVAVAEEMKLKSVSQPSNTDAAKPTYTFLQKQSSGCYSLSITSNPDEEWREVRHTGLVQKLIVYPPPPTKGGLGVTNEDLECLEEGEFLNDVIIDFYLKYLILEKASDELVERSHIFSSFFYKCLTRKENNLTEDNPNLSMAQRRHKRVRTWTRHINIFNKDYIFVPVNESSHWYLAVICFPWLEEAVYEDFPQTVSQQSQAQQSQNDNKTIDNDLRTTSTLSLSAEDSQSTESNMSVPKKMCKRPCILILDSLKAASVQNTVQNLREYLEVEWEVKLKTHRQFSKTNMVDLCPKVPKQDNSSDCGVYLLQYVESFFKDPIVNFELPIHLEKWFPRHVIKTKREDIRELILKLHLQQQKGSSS
# [3] = molecular target: T4, Sentrin-specific protease 6 (Homo sapiens, UniProt Q9GZR1); type: functional;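 note: Luminescence-based dose-response confirmatory assay of SENP6 inhibition, following up an ultra-high-throughput screen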
# T4 sequence (Q9GZR1 whole entry): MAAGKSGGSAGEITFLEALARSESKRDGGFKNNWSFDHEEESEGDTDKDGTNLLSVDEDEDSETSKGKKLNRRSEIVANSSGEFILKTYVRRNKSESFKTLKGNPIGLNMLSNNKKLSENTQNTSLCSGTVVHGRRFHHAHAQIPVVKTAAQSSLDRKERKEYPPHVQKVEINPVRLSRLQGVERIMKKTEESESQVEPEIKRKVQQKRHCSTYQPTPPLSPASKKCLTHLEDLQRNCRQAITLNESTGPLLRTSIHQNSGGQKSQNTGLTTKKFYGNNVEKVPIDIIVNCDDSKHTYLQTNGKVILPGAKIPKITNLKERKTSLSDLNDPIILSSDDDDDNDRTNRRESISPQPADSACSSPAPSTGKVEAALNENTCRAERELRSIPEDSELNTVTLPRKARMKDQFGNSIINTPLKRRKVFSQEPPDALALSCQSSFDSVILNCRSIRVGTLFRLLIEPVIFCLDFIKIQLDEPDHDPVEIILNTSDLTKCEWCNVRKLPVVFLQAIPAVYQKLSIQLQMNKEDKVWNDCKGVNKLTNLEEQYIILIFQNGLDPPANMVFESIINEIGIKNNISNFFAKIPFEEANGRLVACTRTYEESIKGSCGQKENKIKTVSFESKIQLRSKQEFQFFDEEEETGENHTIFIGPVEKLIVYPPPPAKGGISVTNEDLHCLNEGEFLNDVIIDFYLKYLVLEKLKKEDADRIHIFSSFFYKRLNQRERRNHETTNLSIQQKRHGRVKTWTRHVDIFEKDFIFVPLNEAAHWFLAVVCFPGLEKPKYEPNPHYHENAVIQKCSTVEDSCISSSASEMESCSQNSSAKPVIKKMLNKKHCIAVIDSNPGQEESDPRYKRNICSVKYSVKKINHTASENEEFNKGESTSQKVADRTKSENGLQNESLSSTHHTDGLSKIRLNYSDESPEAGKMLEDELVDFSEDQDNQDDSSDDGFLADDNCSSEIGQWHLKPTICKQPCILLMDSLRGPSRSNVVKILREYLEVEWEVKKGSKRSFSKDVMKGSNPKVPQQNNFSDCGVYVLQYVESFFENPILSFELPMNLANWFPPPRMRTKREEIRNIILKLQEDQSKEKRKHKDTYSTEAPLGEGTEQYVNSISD
# [4] = molecular target: T5, Microphthalmia-associated transcription factor (Homo sapiens, UniProt O75030); experiment: reducers of TRPM1 reporter luminescence, concentration series – cell-based, SK-MEL-5, cherry-picked, set 3, MITF inhibitor project, dose response (AID 493073); type: functional;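 note: SK-MEL-5 melanoma cells with luciferase driven by the MITF target TRPM1 promoter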
# T5 sequence (O75030 whole entry): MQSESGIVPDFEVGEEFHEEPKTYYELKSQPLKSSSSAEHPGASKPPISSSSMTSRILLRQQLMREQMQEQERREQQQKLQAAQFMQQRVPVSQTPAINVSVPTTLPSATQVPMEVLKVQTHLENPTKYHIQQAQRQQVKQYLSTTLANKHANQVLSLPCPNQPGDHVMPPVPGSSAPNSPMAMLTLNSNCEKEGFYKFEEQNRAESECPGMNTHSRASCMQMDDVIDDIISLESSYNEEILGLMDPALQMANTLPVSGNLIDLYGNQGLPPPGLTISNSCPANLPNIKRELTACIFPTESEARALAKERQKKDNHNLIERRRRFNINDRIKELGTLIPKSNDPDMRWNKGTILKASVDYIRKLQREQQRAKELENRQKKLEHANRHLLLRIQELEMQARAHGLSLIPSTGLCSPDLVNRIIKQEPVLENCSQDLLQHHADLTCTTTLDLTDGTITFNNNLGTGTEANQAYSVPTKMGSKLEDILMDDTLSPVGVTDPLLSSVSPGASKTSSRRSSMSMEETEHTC
# [5] = blockade of melanocortin 4 receptor signaling – cell-based, plate reader, cherry pick, counter-screen for LGR2 antagonist project, dose response (AID 743444); type: functional;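 note: transfected HEK 293 cells stimulated with alpha-MSH peptide; potency of inhibitors of the alpha-MSH evoked signal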
# [6] = toxicity toward HepG2 liver cells – cell-based, plate reader, cherry-pick, antagonist series, cytotoxicity control, dose response (AID 743416); type: functional
# [7] = viability loss in HEK293 cells – cell-based, plate reader, cherry-picked samples, cytotoxicity control, dose response (AID 743446); type: functional
# [8] = reduced cellular PGC1a acetyl-lysine signal – cell-based, cherry-picked samples, dose response (AID 720514); type: functional;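 note: potency may reflect raised or lowered acetylation signal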
# [9] = A549 cell cytotoxicity, dose response, cytotoxicity control, plate reader, cherry-pick, antagonist series (AID 743412); type: functional, cell-based
# [10] = blockers of bursicon-stimulated LGR2 cAMP reporter – cell-based, HEK293, CRE-luciferase reporter, cherry pick, set 2, dose response (AID 743343); type: functional;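 note: transfected cells were stimulated with diluted bursicon conditioned medium after compound addition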
# fMet-Leu-Phe receptor = molecular target: T6, fMet-Leu-Phe receptor (Homo sapiens, UniProt P21462); experiment: formyl peptide receptor binders – dose response (AID 519); type: functional
# T6 sequence (P21462 whole entry): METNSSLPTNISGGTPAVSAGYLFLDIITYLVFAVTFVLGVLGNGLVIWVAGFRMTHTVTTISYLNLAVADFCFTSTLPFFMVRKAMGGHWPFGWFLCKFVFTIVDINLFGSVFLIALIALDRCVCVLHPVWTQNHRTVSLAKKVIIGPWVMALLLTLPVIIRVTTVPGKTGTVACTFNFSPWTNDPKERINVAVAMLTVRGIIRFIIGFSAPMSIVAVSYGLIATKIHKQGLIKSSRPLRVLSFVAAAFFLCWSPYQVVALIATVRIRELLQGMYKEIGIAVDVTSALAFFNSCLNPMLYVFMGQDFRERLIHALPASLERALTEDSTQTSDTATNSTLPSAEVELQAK
# BJ [11] = experiment: cells; type: functional, cell-based; details: Homo sapiens
# BJ [12] = experiment: BJ-TERT-LT-ST fibroblast viability loss – cell-based, RAS-independent, luminescence, dose response (AID 1935); type: functional; details: Homo sapiens;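 note: BJ fibroblasts immortalized with TERT plus LT and ST oncogenes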
# [13] = DRD fibroblast viability loss – cell-based, non-viral oncogenic, luminescence, dose response (AID 1934); type: functional; details: Homo sapiens
# BJ [14] = experiment: growth inhibition of engineered Ras-driven BJ cells – cell-based, alamar blue fluorescence, cherrypicked samples, dose response (AID 2631); type: functional; details: Homo sapiens;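 note: confirmatory dose-response assay in RAS-dependent BJ fibroblasts engineered with TERT, LT and ST, with cytotoxicity read by fluorescence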
# BJ [15] = experiment: BJ-TERT fibroblast viability loss – cell-based, RAS-independent, luminescence, dose response (AID 1933); type: functional; details: Homo sapiens
Compound,IC50 (Caspase-3),IC50 [1],IC50 [2],IC50 [3],Ki (fMet-Leu-Phe receptor),also measured
O=C(Nc1cccc(F)c1)c1ccc(-c2ccccc2Cl)o1,47 µM (active),53.7 µM (active),7.07 µM (active),42 µM (active),–,–
Cn1nnnc1Sc1ncnc2scc(-c3ccc(C#N)cc3)c12,–,–,–,–,–,AC50 [4]: 4.98 µM (active); AC50 [5]: 3.6 µM (active); AC50 [6]: 7.68 µM (active); AC50 [7]: 10.9 µM (active); AC50 [8]: 8.12 µM (active); AC50 [9]: 7.28 µM (active); AC50 [10]: 5.18 µM (active)
c1ccc(Nc2nnc(-c3cccc4ccccc34)o2)cc1,> 100 µM (inactive),> 100 µM (inactive),> 100 µM (inactive),> 100 µM (inactive),–,–
Fc1ccc(-c2nnc3ccc(N4CCCC4)nn23)cc1,–,–,–,–,> 66.7 µM (inactive),–
COc1ccccc1-n1c(CNC(=O)c2ccco2)nnc1SCC(=O)Nc1ccc(F)cc1,–,–,–,–,63.3 µM (inactive),–
CCCCn1c(NC(C)=O)c(C#N)c2nc3ccccc3nc21,–,–,–,–,45.7 µM (inactive),–
COc1ccc(-c2nnc(SCc3ccccc3F)o2)cc1,16.1 µM (active),12.2 µM (active),4.23 µM (active),12 µM (active),–,–
Brc1nc(-c2ccccc2)nc(-c2ccccc2)c1Br,–,–,–,–,–,EC50 (BJ [11]): 14 µM (active); EC50 (BJ [12]): 7.93 µM (inconclusive); EC50 [13]: 10.2 µM (active); EC50 (BJ [14]): 4.95 µM (active); EC50 (BJ [15]): 8.57 µM (inconclusive)
COc1ccc(-c2cnc3c(c2)C(=O)N([C@H](C)CO)C[C@H](C)[C@@H](CN(C)C(=O)C2CCC2)O3)cc1,–,–,–,–,–,AC50 [8]: 25.8 µM (active)
Cc1cc2oc(C(=O)NC3CCS(=O)(=O)C3)c(C)c2cc1C (centres undefined),–,–,–,–,> 66.7 µM (inactive),–
